The target of the experiment is T1, MnSOD47 (Bacillus sp. MHS47, UniProt E9LK91).
T1 construct: gene sodA
Description: xanthine oxidase/hypoxanthine-tetrazolium SOD assay, […] nm. The experiment is classed as biochemical. Conditions: superoxide generated in situ by xanthine oxidase/hypoxanthine; indirect read-out.

The values that follow come from paper PMC3039983, “Cloning, Expression, and Characterization of Thermotolerant Manganese Superoxide Dismutase from Bacillus sp. MHS47” (International Journal of Molecular Sciences, 2011).

T1 sequence (E9LK91 1-203 limits assumed): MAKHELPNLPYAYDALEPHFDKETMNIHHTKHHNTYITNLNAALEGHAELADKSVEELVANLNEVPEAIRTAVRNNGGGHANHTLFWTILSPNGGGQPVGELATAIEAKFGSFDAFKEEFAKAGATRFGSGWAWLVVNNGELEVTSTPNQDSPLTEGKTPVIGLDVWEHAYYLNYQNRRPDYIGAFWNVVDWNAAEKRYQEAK

On to `[O]O` [superoxide radical], for which the “xanthine oxidase/hypoxanthine-tetrazolium SOD assay, 450 nm” value is reported as “coupled to a tetrazolium salt to detect the reduction in superoxide radicals”.
